Test [1] addresses T1, human PASK (Homo sapiens, UniProt Q96RG2).
T1 construct: purchased ThermoFisher Scientific PR7013A
The test can be described thus: ADP-Glo kinase assay. The class given is biochemical. The note with it: ADPGlo PASK kinase assay, 25 μM ATP, ZIPtide 25 μM. How it is done: The ADP-Glo™ kinase assay is a luminescent technology assay which measures the ADP formed from a kinase reaction. In this specific study, the kinase reactions consisted of the phosphorylation of the ZIPtide peptide substrate by human recombinant PASK. In a second step the kinase reaction is terminated and all the remaining ATP is depleted. In a final step the ADP is converted into ATP and this newly synthesized ATP is measured by using a luciferase/luciferin reaction. The generated light is measured using an Envision plate reader, wherein the luminescent signal obtained positively correlates with the kinase activity.
The test compounds are prepared as a serial dilution of 10 point dose responses with 1/5 dilution steps in 100% DMSO starting from 2 mM highest concentration, diluted 1/20 in water and 1 μL is transferred to the assay plates (PerkinElmer Inc., Cat #6007290).
(§1) 1% DMSO and 10 μM staurosporine final concentrations are used respectively as negative and positive controls.
2 μL enzyme-substrate mixture is added to the assay plates.
The reaction is started by adding 2 μL diluted ATP on the assay plates immediately after addition of the enzyme-substrate mixture to the compound. Plates are centrifuged for a few seconds at 1000 rpm and gently shaken for 2 min followed by an incubation at RT for 120 min.
The reactions are stopped and the unconsumed ATP is depleted by adding 5 μL ADP-Glo Reagent (Promega, Cat #V912B) to the reaction. The plates are centrifuged for a few seconds at 1000 rpm and incubated at RT for 40 min (ATP depletion).
The ADP is converted to ATP and luciferase and luciferin is introduced to detect ATP by adding 10 μL Kinase Detection Reagent (Promega, Cat #V913B+V914B) to the reaction. The plates are centrifuged for a few seconds at 1000 rpm and incubated at RT for 30 min (ADP detection).
Luminescence is measured on an Envision plate reader (PerkinElmer Inc.).
Raw data are generated following the read-out performed on the Envision plate reader, used to calculate percentage inhibition (PIN) values and plotted to generate dose response curves and derive the average half maximal inhibitory concentrations (IC50) reported in Table VIII.

The target in test [2] is T2, autophosphorylation of PASK at position Thr307 in Hek293 cells overexpressing PASK (Homo sapiens, UniProt Q96RG2).
T2 construct: expressed in transfected cells; host or cells: Hek293
T2 sequence (Q96RG2 with tags, fused parts or gaps): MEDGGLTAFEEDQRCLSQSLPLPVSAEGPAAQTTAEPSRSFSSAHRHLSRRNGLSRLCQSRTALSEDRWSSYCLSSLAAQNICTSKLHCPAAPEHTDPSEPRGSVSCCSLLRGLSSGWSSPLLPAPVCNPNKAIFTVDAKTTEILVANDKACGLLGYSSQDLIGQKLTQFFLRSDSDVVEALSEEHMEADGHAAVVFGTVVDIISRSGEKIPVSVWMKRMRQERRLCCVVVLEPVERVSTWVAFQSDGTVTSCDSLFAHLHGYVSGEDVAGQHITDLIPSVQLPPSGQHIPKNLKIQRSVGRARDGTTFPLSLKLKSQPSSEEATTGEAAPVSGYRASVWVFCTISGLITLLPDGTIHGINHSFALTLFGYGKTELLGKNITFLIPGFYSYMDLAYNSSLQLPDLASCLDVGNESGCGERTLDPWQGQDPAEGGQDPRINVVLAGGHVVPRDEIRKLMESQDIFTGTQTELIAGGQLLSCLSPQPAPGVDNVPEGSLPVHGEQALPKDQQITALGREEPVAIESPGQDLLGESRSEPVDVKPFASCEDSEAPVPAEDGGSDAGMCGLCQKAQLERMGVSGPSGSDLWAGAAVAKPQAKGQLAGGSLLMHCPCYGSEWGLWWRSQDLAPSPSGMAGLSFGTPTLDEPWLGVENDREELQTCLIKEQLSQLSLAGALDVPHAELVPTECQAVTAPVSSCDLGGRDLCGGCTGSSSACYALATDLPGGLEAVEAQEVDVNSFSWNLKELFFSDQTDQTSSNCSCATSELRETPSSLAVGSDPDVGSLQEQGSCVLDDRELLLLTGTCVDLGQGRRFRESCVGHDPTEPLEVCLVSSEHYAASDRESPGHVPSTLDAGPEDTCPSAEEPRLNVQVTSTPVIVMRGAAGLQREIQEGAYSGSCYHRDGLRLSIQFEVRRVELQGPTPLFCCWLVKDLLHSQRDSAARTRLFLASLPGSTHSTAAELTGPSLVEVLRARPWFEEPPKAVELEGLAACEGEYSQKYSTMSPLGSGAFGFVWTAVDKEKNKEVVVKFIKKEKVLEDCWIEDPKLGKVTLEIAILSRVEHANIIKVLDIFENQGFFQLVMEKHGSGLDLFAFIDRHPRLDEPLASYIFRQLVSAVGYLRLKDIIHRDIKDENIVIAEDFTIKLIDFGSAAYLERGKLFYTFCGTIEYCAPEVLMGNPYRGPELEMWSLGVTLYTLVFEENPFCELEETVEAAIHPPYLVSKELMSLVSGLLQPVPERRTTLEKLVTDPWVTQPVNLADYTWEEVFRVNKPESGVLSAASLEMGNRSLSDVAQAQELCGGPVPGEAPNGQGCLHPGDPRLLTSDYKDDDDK
The test can be described thus: PASK autophosphorylation ELISA assay. It counts as cell-based. The note with it: 24 h, ELISA readout. As for the experimental part:
The compounds of the invention are profiled in a cellular assay to determine their capacity to reduce the autophosphorylation levels of PASK at position Thr307 in Hek293 cells overexpressing PASK, using an ELISA-based readout.
At day 1, a 96-well cell assay plate is coated with poly-D-lysine (50 μL/well of a 0.05 mg/mL solution in PBS) and incubated for 1 h at 37° C. The plate is subsequently washed once with PBS and stored dry at RT until further use. Hek293 cells are transfected with a pcDNA3.1-PASK(FL,WT)-FLAG construct (SEQ ID1) and seeded in culture medium (DMEM+10% FBS) in a poly-D-lysine coated 96-well plate (0.3 μL JetPEI DNA transfection reagent (Polyplus-transfection SA, Cat #101-40), 10 ng construct and 90 ng pBluescript, 60000 cells per well). […] The cell plate is incubated overnight at 37° C., 5% CO2.
At day 2, the medium of the assay plate is removed and 100 μL of fresh medium (DMEM+10% FBS) is added to the plate. Cell plate is further incubated overnight at 37° C., 5% CO2. This to allow further expression of PASK protein.
At day 3, the medium is removed and replaced with 100 μL of serum free medium (DMEM). Test compound is added to the plate (8 points concentration curve with 1/3 dilution steps starting from 30 μM final concentration in 0.3% DMSO final). In the positive and negative control wells of the plate, 0.3% DMSO final is added. For each tested condition, duplicates are made for ELISA readout. Cell plate is incubated 24 h at 37° C., 5% CO2.
At day 4, the medium is removed and the plate is washed once with 100 μL/well PBS. Cells are lysed by adding 50 μL/well western blot lysis buffer (20 mM Tris pH 7.5, 150 mM NaCl and 1% Triton) to the plate. The assay plate is stored at −80° C. and thawed to perform the ELISA readout.
At day 1, the ELISA plate is coated with the mouse anti-FLAG antibody (2 μg/mL diluted in PBS, 100 μL/well) and incubated overnight at 4° C.
At day 2, the plate is washed once with 150 μL/well PBS. 200 μL/well blocking buffer (PBS with 3% BSA) is added and the plate is incubated for 4 h at RT. The plate is washed with 150 μL/well high salt washing buffer (20 mM Na2HPO4, 0.5% Triton X-100, 0.1% SDS, 0.1% BSA and 1 M NaCl) followed by one wash with 150 μL/well low salt washing buffer (20 mM Na2HPO4, 0.5% Triton X-100, 0.1% SDS, 0.1% BSA and 150 mM NaCl). Meanwhile, the cell lysate plate is thawed, two wells of the same condition are pooled (2×50 μL) and added to the ELISA plate. The ELISA plate is incubated overnight at 4° C.
At day 3, the ELISA plate is washed twice with 150 μL/well high salt washing buffer followed by two washes with low salt washing buffer. 100 μL/well detection antibody for pPASK (phospho-Akt substrate (RXXS*/T*) (110B7E) rabbit antibody (Cell Signaling Technology, Inc., Cat #9614) 2 μg/mL diluted in PBS with 3% BSA and 1×Halt™ protease and phosphatase inhibitor cocktail (Thermo Fisher Scientific, Inc., Cat #78447)) is added and incubated for 2 h at RT. The plate is washed twice with high and low salt wash buffer (150 μL/well) and 100 μL/well of an HRP antibody (swine anti-rabbit HRP antibody (Agilent Technologies, Inc., Cat #P039901) diluted 1/2000 in PBS with 3% BSA and 1×Halt™ protease and phosphatase inhibitor cocktail) is added to the plate, followed by an incubation for 1 h at RT in the dark (plate sealed with aluminum seal). The plate is washed twice with high and low salt wash buffer (150 μL/well) and 100 μL/well of SuperSignal™ ELISA Pico Chemiluminescent Substrate (Thermo Fisher Scientific, Inc., Cat #37070)(premix part 1 and part 2, 1/1) is added. The plate is incubated for 4 min at RT before measuring luminescence on the Luminoskan™ Ascent (Thermo Fisher Scientific, Inc.) (PMT default voltage; 100 ms integration time). […]

For test [3], the target named is T1, human PASK. Nature of the test: 33P radioactive kinase assay. The note with it: 33P radioactive PASK kinase assay, 10 μM ATP, ZIPtide 1 μM. It counts as biochemical. As for the experimental part:
The principle of the ^33P radioactive kinase assay consists in measuring the incorporated ^33P into the ZIPtide peptide substrate when phosphorylated by human PASK using [^33P]-[…]-ATP and ATP, which correlates with kinase activity.
The test compounds are prepared as a serial dilution of 10 point dose responses with 1/5 dilution steps in 100% DMSO starting from 0.2 or 2 mM highest concentration, diluted 1/20 in water and 5 μL is transferred to the assay plates (Greiner, Cat #651201).
as §1
11 μL of enzyme-substrate mixture is added on the assay plates. The reactions are started by adding 9 μL ATP mixture, consisting of non-labeled and ^33P-labeled ATP, on the assay plates.
The reactions are stopped by adding 25 μL phosphoric acid (150 mM) to the reactions.
The completely terminated kinase reactions are transferred using a harvester on pre-wetted UniFilter-96 plates (UniFilter-96 GF/B, PerkinElmer Inc., Cat #6005177).
After harvesting the kinase reactions, the filter plates are washed 6 times with phosphoric acid (75 mM). The back of the UniFilter-96 plates are sealed and 40 μL MicroScint-20 (PerkinElmer Inc., Cat #6013621) is added to each well. The top of each plate is sealed with TopSeal-A (PerkinElmer Inc., Cat #6050185). Read-out is performed with a TopCount instrument (PerkinElmer Inc.).
Raw data are generated following the read-out performed on the TopCount, used to calculate percentage inhibition (PIN) values and plotted to generate dose response curves and derive the average half maximal inhibitory concentrations (IC50) reported in Table VI.

Molecules are shown by their SMILES. Where only a bound is given, the exact number is not on record here.

T1 sequence (Q96RG2 whole entry): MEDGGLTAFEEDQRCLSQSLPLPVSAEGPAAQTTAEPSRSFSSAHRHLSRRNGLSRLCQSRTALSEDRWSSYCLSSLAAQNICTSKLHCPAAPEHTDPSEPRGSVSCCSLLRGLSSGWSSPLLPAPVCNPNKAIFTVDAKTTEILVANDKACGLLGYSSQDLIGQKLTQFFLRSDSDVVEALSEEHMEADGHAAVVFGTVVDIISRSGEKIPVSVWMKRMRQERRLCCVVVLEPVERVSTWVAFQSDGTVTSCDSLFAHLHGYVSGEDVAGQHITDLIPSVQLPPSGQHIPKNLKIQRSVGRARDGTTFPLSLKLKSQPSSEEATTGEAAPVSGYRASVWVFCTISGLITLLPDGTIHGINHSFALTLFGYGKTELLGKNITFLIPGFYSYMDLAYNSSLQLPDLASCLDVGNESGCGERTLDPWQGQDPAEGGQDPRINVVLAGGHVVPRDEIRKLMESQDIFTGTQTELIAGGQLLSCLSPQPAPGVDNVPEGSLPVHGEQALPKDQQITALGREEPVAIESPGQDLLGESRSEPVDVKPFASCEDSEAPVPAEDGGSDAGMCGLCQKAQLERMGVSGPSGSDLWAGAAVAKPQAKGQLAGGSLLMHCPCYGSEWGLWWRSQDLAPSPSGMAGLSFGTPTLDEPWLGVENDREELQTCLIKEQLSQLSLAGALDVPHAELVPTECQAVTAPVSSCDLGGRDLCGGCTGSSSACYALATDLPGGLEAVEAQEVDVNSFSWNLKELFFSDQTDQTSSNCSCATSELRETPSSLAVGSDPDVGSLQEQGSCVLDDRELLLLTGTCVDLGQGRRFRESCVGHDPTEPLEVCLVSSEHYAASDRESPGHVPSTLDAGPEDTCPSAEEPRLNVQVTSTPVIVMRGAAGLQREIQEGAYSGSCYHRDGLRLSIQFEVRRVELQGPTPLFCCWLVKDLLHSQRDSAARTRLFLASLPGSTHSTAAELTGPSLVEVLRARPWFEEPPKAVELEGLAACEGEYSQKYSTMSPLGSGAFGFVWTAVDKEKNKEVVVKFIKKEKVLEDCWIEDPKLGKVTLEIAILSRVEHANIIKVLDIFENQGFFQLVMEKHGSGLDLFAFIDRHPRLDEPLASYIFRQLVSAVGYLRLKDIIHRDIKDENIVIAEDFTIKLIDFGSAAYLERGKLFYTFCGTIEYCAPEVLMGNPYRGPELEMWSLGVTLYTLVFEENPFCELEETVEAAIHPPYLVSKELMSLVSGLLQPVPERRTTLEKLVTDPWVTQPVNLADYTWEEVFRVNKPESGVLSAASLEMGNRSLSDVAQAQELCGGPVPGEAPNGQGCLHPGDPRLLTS

Regarding `COc1nc(-c2ccn3ncc(-c4c(C)nn(C(F)F)c4C)c3c2)sc1C(=O)O` [Cpd 79, 2-[3-[1-(difluoromethyl)-3,5-dimethyl-pyrazol-4-yl]pyrazolo[1,5-a]pyridin-5-yl]-4-methoxy-thiazole-5-carboxylic acid], the IC50 is 0.01 to 10 nM against human PASK [1] and over 5000 nM in test [2].

Take `CCOc1nc(-c2ccn3ncc(-c4c(C)nn(CC)c4C)c3c2)sc1C(=O)O` [Cpd 64, 4-ethoxy-2-[3-(1-ethyl-3,5-dimethyl-pyrazol-4-yl)pyrazolo[1,5-a]pyridin-5-yl]thiazole-5-carboxylic acid]: the IC50 at human PASK [1] fell in the range of 0.01 to 10 nM; in test [2], 0.1 to 500 nM.

For the compound `CCOc1nc(-c2ccn3ncc(-c4c(C)nn(CC(F)(F)F)c4C)c3c2)sc1C(=O)O` [Cpd 70, 2-[3-[3,5-dimethyl-1-(2,2,2-trifluoroethyl)pyrazol-4-yl]pyrazolo[1,5-a]pyridin-5-yl]-4-ethoxy-thiazole-5-carboxylic acid], the IC50 against human PASK [1] is 0.01 to 10 nM; in test [2], 0.1 to 500 nM.

Regarding `Cc1nn(C(F)F)c(C)c1-c1cnn2ccc(-c3ncc(C(=O)O)s3)cc12` [Cpd 50, 2-[3-[1-(difluoromethyl)-3,5-dimethyl-pyrazol-4-yl]pyrazolo[1,5-a]pyridin-5-yl]thiazole-5-carboxylic acid], the IC50 against human PASK [1] was 0.01 to 10 nM; in test [2] it was over 5000 nM.

In the case of `Cc1c(-c2cnn3ccc(-n4cc(C(=O)O)cn4)cc23)c(C(F)(F)F)nn1C` [Cpd 67, 1-[3-[1,5-dimethyl-3-(trifluoromethyl)pyrazol-4-yl]pyrazolo[1,5-a]pyridin-5-yl]pyrazole-4-carboxylic acid], the 50% inhibitory concentration (IC50) at human PASK [1] was in the range of 0.01 to 10 nM; in test [2], 1000 to 5000 nM.

For `CCn1nc(C)c(-c2cnn3ccc(-c4nc(OC)c(C(=O)O)s4)cc23)c1C` [Cpd 84, 2-[3-(1-ethyl-3,5-dimethyl-pyrazol-4-yl)pyrazolo[1,5-a]pyridin-5-yl]-4-methoxy-thiazole-5-carboxylic acid], the results for the IC50 (at human PASK [1]; in test [2]) were 0.01 to 10 nM and 1000 to 5000 nM, respectively.

In the case of `COc1nn(-c2ccn3ncc(-c4c(C(F)(F)F)nn(C)c4C)c3c2)cc1C(=O)O` [Cpd 78, 1-[3-[1,5-dimethyl-3-(trifluoromethyl)pyrazol-4-yl]pyrazolo[1,5-a]pyridin-5-yl]-3-methoxy-pyrazole-4-carboxylic acid], the values for the IC50 (on human PASK [1]; in test [2]) were 0.01 to 10 nM and 1000 to 5000 nM, respectively.

Regarding `COc1nc(-c2ccn3ncc(-c4c(C)nn(CC(F)(F)F)c4C)c3c2)sc1C(=O)O` [Cpd 77, 2-[3-[3,5-dimethyl-1-(2,2,2-trifluoroethyl)pyrazol-4-yl]pyrazolo[1,5-a]pyridin-5-yl]-4-methoxy-thiazole-5-carboxylic acid], the IC50 was 0.01 to 10 nM against human PASK [1] and over 5000 nM in test [2].

As to `CCn1nc(C)c(-c2cnn3ccc(-n4cc(C(N)=O)c(OC)n4)cc23)c1C` [Cpd 82, 1-[3-(1-ethyl-3,5-dimethyl-pyrazol-4-yl)pyrazolo[1,5-a]pyridin-5-yl]-3-methoxy-pyrazole-4-carboxamide], the concentration for half-maximal inhibition (IC50) was 0.01 to 10 nM on human PASK [1] and over 5000 nM in test [2].

As to `COc1nn(-c2ccn3ncc(-c4c(C)nn(C(F)F)c4C)c3c2)cc1C(=O)O` [Cpd 71, 1-[3-[1-(difluoromethyl)-3,5-dimethyl-pyrazol-4-yl]pyrazolo[1,5-a]pyridin-5-yl]-3-methoxy-pyrazole-4-carboxylic acid], the IC50 was 0.01 to 10 nM against human PASK [1] and over 5000 nM in test [2].

For `Cc1noc(C)c1-c1cnn2ccc(-c3nc(C(F)(F)F)c(C(=O)O)o3)cc12` [Cpd 36, 2-[3-(3,5-dimethylisoxazol-4-yl)pyrazolo[1,5-a]pyridin-5-yl]-4-(trifluoromethyl) oxazole-5-carboxylic acid], the IC50 against human PASK [1] and on human PASK [3] was 100 to 500 nM in each case.

On to `Cc1noc(C)c1-c1cnn2ccc(-c3cc(C(=O)O)co3)cc12` [Cpd 4, 5-[3-(3,5-dimethylisoxazol-4-yl)pyrazolo[1,5-a]pyridin-5-yl]furan-3-carboxylic acid], for which the IC50 against human PASK [1] and on human PASK [3] was 0.01 to 10 nM each time.

As to `CCn1nc(C)c(-c2cnn3ccc(-c4ncc(C(=O)O)s4)cc23)c1C` [Cpd 29, 2-[3-(1-ethyl-3,5-dimethyl-pyrazol-4-yl)pyrazolo[1,5-a]pyridin-5-yl]thiazole-5-carboxylic acid], the IC50 on human PASK [1] and at human PASK [3] was 0.01 to 10 nM in each case.

Broadly, the IC50 is the point on the concentration scale where inhibition reaches its midpoint.

(Values after US20220144823A1, “PYRAZOLOPYRIDINE DERIVATIVES AS INHIBITORS OF PASK” (Galapagos NV, priority 2019, published 2022).)
